Assay results as given in ChEMBL document CHEMBL2021885, “Triphenylbutanamines: kinesin spindle protein inhibitors with in vivo antitumor activity” (J Med Chem, 2012).
Active and inactive are the calls of the source. No cut-off for these calls is given here.

How the values were obtained:
[1] = biological target: T1, Kinesin-like protein KIF7 (Homo sapiens) (UniProt Q2M1P5); test: Inhibition of Kif7 ATPase activity
T1 sequence (whole entry): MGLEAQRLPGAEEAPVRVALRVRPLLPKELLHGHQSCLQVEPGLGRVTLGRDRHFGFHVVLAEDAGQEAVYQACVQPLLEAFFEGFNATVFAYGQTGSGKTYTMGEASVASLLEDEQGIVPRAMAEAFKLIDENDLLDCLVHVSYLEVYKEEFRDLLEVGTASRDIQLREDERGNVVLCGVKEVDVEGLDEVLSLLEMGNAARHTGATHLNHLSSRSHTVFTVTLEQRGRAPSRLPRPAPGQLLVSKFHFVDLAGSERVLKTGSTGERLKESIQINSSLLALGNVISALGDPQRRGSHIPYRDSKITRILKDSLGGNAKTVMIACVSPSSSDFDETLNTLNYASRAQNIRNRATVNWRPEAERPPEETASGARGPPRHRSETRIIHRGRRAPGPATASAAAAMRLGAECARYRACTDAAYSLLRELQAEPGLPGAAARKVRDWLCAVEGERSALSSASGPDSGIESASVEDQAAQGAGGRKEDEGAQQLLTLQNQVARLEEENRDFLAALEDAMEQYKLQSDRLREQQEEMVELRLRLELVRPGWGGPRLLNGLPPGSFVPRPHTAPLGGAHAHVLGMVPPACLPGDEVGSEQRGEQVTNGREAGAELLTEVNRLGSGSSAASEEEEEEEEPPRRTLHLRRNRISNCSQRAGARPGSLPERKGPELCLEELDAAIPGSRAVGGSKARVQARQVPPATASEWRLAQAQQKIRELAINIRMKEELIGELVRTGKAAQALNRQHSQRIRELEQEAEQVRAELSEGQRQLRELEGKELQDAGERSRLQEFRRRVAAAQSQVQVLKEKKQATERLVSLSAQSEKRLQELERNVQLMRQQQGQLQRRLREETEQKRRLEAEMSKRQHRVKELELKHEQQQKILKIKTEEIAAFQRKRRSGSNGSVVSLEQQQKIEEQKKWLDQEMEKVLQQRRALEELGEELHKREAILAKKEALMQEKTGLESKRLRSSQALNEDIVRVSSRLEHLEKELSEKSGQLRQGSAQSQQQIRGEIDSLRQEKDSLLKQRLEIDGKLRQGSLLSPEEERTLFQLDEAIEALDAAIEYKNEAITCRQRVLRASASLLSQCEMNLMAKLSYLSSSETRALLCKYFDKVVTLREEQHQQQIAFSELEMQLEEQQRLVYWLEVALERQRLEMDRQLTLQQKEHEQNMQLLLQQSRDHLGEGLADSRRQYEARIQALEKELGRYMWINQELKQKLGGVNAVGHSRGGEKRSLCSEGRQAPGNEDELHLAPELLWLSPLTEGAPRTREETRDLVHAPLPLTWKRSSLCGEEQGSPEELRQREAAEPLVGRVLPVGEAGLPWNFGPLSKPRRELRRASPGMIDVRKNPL

[2] = biological target: T1, Kinesin-like protein KIF7 (Homo sapiens); test: Inhibition of MT-stimulated Kif7 ATPase activity
[3] = biological target: T2, Kinesin-like protein KIF20A (Homo sapiens) (UniProt O95235); test: Inhibition of MKLP2 ATPase activity
T2 sequence (whole entry): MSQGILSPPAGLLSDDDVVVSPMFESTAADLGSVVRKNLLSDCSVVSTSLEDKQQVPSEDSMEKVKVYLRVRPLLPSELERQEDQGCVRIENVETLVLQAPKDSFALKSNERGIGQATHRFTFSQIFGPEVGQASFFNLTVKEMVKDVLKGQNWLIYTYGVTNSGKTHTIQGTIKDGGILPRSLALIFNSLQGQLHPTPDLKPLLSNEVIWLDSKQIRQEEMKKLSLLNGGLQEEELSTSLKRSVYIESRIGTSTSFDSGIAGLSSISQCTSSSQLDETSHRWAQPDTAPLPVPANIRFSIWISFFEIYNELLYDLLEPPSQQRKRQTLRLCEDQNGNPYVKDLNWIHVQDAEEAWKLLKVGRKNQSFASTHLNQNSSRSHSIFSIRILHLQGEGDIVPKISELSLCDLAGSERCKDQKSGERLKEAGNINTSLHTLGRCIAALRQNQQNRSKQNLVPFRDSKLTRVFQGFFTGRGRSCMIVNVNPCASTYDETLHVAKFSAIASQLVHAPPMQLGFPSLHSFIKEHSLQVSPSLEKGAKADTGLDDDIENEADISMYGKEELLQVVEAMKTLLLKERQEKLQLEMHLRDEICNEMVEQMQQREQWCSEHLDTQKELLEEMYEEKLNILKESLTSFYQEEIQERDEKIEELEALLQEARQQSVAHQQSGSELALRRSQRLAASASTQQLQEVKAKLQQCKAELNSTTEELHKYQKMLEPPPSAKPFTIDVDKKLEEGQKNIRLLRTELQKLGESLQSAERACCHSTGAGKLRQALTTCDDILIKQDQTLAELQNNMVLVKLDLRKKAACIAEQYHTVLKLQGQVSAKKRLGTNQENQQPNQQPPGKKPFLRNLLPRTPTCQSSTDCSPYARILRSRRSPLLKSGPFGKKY

[4] = biological target: Centromere-associated protein E (Homo sapiens) (UniProt Q02224); test: Inhibition of MT-stimulated CENP-E ATPase activity
[5] = Turbidimetric solubility of the compound at pH 2; assay type: physicochemical; details: buffer
[6] = Antitumor activity against human LXFS 538 cells xenografted in nu/nu nude Charles river mouse assessed as inhibition of tumor growth dosed at 20 mg/kg on days 0, 2 and 4 and 15 mg/kg on days 17, 19, 24 measured after 10 days; assay type: functional

Sequence of Centromere-associated protein E (Homo sapiens) (Q02224 whole entry): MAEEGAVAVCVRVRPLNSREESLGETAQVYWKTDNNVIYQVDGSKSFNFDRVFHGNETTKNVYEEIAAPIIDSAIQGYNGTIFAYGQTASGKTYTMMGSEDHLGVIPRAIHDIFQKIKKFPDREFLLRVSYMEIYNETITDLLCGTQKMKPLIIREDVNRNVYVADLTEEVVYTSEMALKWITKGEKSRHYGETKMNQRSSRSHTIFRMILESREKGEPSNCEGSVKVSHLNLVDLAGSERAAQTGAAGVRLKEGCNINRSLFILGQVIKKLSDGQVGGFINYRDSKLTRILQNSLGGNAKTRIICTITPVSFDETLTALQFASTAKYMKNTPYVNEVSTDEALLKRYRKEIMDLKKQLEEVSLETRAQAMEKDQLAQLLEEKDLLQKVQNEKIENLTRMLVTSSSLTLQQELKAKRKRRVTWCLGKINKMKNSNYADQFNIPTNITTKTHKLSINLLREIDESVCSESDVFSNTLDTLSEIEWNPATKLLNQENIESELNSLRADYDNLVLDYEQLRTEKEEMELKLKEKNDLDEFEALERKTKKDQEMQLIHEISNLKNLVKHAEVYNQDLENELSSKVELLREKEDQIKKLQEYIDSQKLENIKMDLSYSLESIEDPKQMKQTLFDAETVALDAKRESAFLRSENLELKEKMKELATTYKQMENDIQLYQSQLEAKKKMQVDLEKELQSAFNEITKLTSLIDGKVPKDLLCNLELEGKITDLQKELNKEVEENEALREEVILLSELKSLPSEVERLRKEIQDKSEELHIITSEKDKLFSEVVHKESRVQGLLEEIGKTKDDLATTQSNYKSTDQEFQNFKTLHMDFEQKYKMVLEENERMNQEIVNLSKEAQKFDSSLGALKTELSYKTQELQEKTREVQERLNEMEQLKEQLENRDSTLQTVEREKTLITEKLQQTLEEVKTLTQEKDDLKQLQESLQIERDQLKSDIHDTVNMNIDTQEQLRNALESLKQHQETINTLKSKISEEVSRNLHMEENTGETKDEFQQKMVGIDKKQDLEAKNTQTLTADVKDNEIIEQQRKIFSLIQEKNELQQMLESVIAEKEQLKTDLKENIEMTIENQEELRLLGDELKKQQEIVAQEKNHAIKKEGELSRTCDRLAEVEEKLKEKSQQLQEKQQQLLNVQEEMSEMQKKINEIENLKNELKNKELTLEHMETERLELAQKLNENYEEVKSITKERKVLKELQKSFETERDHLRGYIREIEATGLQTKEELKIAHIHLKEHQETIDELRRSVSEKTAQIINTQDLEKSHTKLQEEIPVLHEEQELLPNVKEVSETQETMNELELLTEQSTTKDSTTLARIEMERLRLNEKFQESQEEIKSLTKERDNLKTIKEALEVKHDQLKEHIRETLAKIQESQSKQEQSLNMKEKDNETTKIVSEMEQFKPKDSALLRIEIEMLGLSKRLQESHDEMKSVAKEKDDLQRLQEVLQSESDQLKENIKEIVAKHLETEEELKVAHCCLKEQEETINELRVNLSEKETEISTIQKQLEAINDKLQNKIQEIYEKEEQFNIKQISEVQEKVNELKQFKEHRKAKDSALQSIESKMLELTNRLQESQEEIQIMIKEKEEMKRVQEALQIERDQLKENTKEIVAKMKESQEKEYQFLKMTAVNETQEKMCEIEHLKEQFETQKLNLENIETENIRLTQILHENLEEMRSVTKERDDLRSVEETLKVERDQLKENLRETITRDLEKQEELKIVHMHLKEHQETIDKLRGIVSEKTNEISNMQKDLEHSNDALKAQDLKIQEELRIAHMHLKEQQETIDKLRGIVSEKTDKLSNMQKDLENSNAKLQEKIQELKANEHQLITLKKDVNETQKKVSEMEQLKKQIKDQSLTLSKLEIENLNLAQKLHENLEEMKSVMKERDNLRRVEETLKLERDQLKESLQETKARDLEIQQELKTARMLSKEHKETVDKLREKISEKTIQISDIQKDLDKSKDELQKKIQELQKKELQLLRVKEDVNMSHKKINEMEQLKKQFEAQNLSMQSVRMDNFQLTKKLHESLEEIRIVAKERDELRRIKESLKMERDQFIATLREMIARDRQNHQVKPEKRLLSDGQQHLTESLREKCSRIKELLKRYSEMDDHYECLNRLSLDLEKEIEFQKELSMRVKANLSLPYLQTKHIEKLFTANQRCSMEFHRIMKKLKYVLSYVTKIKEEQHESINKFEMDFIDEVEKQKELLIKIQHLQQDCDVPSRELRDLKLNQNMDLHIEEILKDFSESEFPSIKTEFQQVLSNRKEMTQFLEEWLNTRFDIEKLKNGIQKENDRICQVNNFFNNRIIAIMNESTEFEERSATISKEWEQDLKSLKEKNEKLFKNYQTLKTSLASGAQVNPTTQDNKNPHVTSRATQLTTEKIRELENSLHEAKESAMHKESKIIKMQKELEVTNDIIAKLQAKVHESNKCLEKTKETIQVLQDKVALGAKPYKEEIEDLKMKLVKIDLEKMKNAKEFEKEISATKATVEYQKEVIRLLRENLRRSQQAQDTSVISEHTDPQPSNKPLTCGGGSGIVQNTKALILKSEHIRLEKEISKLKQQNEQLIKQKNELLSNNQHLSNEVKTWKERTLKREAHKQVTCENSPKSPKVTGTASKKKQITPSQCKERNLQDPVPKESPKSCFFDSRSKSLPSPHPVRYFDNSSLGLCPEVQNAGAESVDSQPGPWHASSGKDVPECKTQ

Cc1cccc(C(CCC(N)C(=O)O)(c2ccccc2)c2ccccc2)c1 (racemic)
inhibition [1]: inactive | inhibition [2]: inactive | inhibition [3]: inactive | inhibition [4]: inactive | solubility kinetic [5]: > 100 µM | T/C [6]: 26.3%
